Data reported in BindingDB's records for doi:10.1002/cbic.201402089 (University of Santiago De Compostela, 2014).
Several values for one entry are separate records, joined by “and”; a condition that tells them apart may be missing. Identical values can stand only once.

target: T1, Kinesin-like protein KIF11 [1-973] (Homo sapiens, UniProt P52732); test: Microtubule-activated ATPase Kinetic Assay
T1 construct: 1-973
T1 sequence (P52732 whole entry): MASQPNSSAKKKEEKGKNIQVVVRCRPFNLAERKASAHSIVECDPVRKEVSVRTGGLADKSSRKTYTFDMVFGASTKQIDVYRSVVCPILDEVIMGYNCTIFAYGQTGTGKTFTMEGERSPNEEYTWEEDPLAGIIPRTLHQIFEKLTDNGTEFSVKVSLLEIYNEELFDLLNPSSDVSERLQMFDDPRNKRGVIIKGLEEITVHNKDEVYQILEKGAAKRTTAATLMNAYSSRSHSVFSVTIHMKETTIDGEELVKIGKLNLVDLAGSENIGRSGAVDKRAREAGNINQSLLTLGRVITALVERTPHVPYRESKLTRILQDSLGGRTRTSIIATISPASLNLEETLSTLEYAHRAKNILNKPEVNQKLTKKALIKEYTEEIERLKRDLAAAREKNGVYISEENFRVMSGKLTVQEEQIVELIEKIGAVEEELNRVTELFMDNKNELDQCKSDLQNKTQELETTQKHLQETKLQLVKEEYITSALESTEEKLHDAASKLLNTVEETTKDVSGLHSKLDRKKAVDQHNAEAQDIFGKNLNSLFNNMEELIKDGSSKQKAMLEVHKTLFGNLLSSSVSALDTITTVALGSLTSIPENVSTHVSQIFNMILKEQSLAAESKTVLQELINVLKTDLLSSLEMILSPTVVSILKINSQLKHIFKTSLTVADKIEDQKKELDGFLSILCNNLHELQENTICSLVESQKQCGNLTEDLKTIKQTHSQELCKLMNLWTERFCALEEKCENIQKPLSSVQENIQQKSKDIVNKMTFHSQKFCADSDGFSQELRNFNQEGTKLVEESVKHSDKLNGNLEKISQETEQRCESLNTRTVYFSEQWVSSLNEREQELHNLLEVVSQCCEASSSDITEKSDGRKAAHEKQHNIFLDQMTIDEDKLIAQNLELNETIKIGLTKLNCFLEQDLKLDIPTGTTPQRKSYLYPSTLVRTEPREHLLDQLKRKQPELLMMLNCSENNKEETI

IC50 | SMILES
1490 nM and 2520 nM | CCOC(=O)CNC(=O)C(C1CC1)n1c(C(=O)c2ccccc2)nc2cc(Br)c(Br)cc21 (stereo not drawn) [(−)-Ethyl 2-[2-(2-benzoyl-5,6-dibromo-1H-benzo[d]imidazol-1-yl)-2 cyclopropylacetamido] acetate (Compound 21)]
1370 nM and 1720 nM | CCCC(C(=O)NCC(=O)OCC)n1c(C(=O)c2ccccc2)nc2cc(Br)c(Br)cc21 (stereo not drawn) [(−)-Ethyl 2-[2-(2-benzoyl-5,6-dibromo-1H-benzo[d]imidazol-1-yl)pentanamido]acetate (Compound 23)]
2290 nM | CCOC(=O)CNC(=O)C(C1CC1)n1c(Cc2ccccc2)nc2cc(Br)c(Br)cc21 (stereo not given) [Ethyl 2-[2-(2-benzyl-5,6-dibromo-1H-benzo[d]imidazol-1-yl)-2-cyclopropylacetamido] acetate (Compound 12)]
1600 nM | CCCC(C(=O)NCC(=O)OCC)n1c(Cc2ccccc2)nc2cc(Cl)c(Cl)cc21 (stereo not given) [Ethyl 2-[2-(2-benzyl-5,6-dichloro-1H-benzo[d]imidazol-1-yl)pentanamido] acetate (Compound 9)]
6900 nM | CCOC(=O)C1C(C)=NC(=S)NC1c1cccc(O)c1 (stereo not given) [ethyl 4-(3-hydroxyphenyl)-6-methyl-2-sulfanylidene-3,4-dihydro-1H-pyrimidine-5-carboxylate]
